Experimental data: patent US11464780B2, “Pyrazolopyrimidine derivative and use thereof” (Simcere Pharmaceutical Co. Ltd., priority 2018, dated 2022)
One block for each compound: values may come before it.

How the values were obtained:
[1] = biological target: T1, ALK (Homo sapiens, UniProt Q9UM73); assay: Kinase inhibitory activity (33P-ATP filter binding, Reaction Biology Corp.); assay type: biochemical; settings: read-out: The half maximal inhibitory concentration IC50 on the kinases, ALK
T1 construct: purchased Reaction Biology Corp. (contract assay)
Method in brief: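 Compounds (10 concentrations, 3-fold dilutions, 2% DMSO final) preincubated 20 min at room temperature with kinase and substrate in Hepes pH 7.5 buffer. Reaction started with ^33P-ATP, 120 min at room temperature; filter-binding radioactivity expressed as activity remaining versus DMSO control, IC50 from fitted dose-response curve.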

[2] = system: human colon cancer cell line KM12 subcutaneous xenograft tumor; assay: In vivo efficacy, subcutaneous xenograft tumor of human colon cancer KM12; set-up: species or system BALB/c mouse; settings: PO
Experimental: Experimental object: evaluation of the in vivo efficacy of test drugs such as WX002A on subcutaneous xenograft tumor of human colon cancer cell line KM12 cell in BALB/c mouse model.
(§1) Drug preparation: The compounds were all prepared into clear solutions with 5% DMSO+10% solutol+85% water as solvent for administration in the PO (intragastric) group.
(§2) Tumor measurement: the tumor diameters were measured with a vernier caliper twice a week. The calculation formula of tumor volume is: V=0.5×a×b^2, wherein a and b represent the long diameter and short diameter of the tumor, respectively. The anti-tumor efficacy of the compounds is evaluated by TGI (%). TGI (%) reflects tumor growth inhibition rate.
Statistical analysis: The statistical analysis was based on the relative tumor volume and tumor weight at the end of the experiment using SPSS software. One-way ANOVA was used to analyze the comparison between multiple groups. […] P<0.05 was considered to indicate significant difference.

[3] = system: human lung cancer LU-01-0414 subcutaneous xenograft tumor; assay: In vivo efficacy, subcutaneous xenograft tumor of human lung cancer LU-01-0414; set-up: species or system BALB/c mouse; settings: LU-01-0414 xenograft, 14th day, PO
Experimental: Experimental object: evaluation of the in vivo efficacy of test drugs such as WX002A on subcutaneous xenograft tumor of human lung cancer LU-01-0414 in BALB/c mouse model.
as §1
as §2, with “compounds was” for “compounds is”
Statistical analysis: the statistical analysis was based on the relative tumor volume and tumor weight at the end of the experiment using SPSS software. One-way ANOVA was used to analyze the comparison between multiple groups. […] P<0.05 was considered to indicate significant difference.

[4] = In vivo cassette pharmacokinetic test in mice; set-up: species or system male CD-1 mice; settings: cassette, mice
Experimental: The dose of the compounds: […] PO dose of 3 mg/kg, and administration volume of 3 mL/kg.

[5] = biological target: T2, BaF3 ETV6-NTRK3-G623R stably transfected cell line (Homo sapiens, UniProt Q16288, G623R, cells depend on it); assay: Cell proliferation inhibition (CellTiter-Glo); assay type: cell-based; settings: 72 hours, read-out: The half maximal inhibitory concentration IC50 against cells, BaF3 ETV6-NTRK3-G623R
T2 construct: fused on or other part: P41212 (Transcription factor ETV6)
T2 sequence (Q16288 whole entry G623R, the tested form may be a part): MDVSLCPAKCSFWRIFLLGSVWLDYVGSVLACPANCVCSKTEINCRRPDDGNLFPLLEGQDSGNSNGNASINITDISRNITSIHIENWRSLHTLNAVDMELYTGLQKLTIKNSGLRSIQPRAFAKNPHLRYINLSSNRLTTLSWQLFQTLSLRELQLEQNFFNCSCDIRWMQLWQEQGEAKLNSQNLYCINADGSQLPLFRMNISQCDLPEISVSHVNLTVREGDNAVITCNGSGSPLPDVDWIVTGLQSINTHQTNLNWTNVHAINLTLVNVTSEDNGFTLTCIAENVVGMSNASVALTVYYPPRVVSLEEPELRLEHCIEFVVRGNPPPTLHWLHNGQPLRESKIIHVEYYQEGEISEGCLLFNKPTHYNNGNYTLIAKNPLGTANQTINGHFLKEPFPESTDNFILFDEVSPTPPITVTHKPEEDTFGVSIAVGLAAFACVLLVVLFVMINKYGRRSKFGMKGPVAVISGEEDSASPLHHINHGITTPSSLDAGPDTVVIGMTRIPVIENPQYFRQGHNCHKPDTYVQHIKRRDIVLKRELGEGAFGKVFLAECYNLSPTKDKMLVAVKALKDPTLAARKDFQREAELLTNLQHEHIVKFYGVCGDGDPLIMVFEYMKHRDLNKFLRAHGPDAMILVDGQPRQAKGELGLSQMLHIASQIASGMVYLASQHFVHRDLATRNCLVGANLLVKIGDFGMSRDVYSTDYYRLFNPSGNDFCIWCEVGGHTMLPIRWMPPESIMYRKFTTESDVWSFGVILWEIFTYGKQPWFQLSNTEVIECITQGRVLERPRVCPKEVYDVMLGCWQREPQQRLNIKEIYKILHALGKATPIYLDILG

T1 sequence (Q9UM73 19-1620): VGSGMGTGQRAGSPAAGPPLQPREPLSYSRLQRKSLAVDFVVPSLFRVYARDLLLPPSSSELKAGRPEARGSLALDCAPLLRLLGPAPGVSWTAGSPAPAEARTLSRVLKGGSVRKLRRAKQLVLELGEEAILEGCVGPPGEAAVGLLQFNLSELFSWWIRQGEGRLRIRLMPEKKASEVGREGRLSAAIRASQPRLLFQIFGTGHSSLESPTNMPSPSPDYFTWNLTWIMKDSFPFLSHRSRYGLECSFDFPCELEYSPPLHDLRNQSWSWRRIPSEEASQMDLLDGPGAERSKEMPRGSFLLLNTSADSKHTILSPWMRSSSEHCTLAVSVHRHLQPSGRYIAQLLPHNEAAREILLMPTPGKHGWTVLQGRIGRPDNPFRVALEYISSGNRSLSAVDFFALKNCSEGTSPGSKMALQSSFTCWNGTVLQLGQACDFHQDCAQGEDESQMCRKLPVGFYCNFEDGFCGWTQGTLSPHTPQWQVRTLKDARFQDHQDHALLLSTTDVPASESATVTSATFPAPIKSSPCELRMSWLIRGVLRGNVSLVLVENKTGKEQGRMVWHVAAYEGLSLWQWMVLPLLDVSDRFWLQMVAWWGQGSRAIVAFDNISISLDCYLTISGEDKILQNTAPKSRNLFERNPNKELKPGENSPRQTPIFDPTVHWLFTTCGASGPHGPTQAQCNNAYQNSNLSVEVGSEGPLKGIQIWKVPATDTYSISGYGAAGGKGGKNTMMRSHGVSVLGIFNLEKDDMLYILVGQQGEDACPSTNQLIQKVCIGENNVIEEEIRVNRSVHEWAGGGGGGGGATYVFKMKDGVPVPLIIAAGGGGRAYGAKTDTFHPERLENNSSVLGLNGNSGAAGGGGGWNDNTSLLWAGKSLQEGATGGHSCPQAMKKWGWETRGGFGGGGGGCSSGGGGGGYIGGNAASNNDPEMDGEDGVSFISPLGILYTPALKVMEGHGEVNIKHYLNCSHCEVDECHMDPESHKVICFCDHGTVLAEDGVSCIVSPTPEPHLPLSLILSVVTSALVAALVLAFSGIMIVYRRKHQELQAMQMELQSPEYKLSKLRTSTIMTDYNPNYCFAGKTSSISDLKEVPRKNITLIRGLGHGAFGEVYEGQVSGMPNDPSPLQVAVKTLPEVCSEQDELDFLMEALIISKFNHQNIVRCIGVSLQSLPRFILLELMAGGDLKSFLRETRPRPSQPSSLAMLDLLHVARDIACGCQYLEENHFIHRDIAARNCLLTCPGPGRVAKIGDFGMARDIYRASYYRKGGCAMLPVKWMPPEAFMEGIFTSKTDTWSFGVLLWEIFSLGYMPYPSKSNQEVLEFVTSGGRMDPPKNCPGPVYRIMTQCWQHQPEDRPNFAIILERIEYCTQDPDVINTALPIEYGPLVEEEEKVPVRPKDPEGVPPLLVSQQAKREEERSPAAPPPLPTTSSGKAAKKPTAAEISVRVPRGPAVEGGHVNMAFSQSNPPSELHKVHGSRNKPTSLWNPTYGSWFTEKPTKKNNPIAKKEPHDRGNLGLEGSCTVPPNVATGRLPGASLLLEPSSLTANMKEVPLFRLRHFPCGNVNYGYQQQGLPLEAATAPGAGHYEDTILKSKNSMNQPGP

IC50 [1]: 13 nM
Apparent clearance Cl ([4]; IV @ 1 mpk): 6.3 mL/min/kg
Apparent volume of distribution Vd ([4]; IV @ 1 mpk): 0.57 L/kg
Area under curve AUC0-inf ([4]; IV @ 1 mpk): 6.689 µM·h
Half life T1/2 ([4]; IV @ 1 mpk): 52.8 min
C0 ([4]; IV @ 1 mpk, plasma, read-out: Initial concentration C0): 3.71 µM
Bioavailability F % ([4]; PO @ 3 mpk vs IV @ 1 mpk): 76%
Area under curve AUC0-inf ([4]; PO @ 3 mpk): 19.769 µM·h
Time of peak concentration Tmax ([4]; PO @ 3 mpk): 15 min
drug concentration in cerebrospinal fluid at 0.5 hour CSF@0.5 h ([4]; PO @ 3 mpk, CSF, 0.5 h): 63 nmol/kg
drug concentration in cerebrospinal fluid at 2 hour CSF@2 h ([4]; PO @ 3 mpk, CSF, 2 h): 21 nmol/kg
drug concentration in brain at 0.5 h Brain@0.5 h ([4]; PO @ 3 mpk, brain, 0.5 h): 663 nmol/kg
drug concentration in brain at 2 h Brain@2 h ([4]; PO @ 3 mpk, brain, 2 h): 343 nmol/kg
Cmax ([4]; PO @ 3 mpk, read-out: Peak concentration Cmax): 4.74 µM
GI50 [5]: 3.4 nM
SMILES: O=C1NC2(CC2)COc2ncc(F)cc2[C@H]2CCON2c2ccn3ncc1c3n2 [WX002A]
T/C ([2]; dose of 3 mg/kg): 33.18%
TGI ([2]; dose of 3 mg/kg): 71.23%
T/C ([2]; dose of 15 mg/kg): 15.63%
TGI ([2]; dose of 15 mg/kg): 88.61%
T/C ([3]; 3 mg/kg BID): 9.57%
TGI ([3]; 3 mg/kg BID): 118.02%
T/C ([3]; 15 mg/kg BID): 3.07%
TGI ([3]; 15 mg/kg BID): 126.88%
T/C ([3]; 30 mg/kg BID): 1.87%
TGI ([3]; 30 mg/kg BID): 128.36%

IC50 [1]: 10.4 nM
GI50 [5]: 3.49 nM
SMILES: O=C1N[C@@H]2COC[C@@H]2Oc2ncc(F)cc2[C@H]2CCON2c2ccn3ncc1c3n2 [WX008A]
